Laboratory results taken from patent US20240376097A1, “BCL-2 Inhibitor” (BeiGene Ltd., priority 2020, published 2024).
Where two headings read alike, the source gives them in different places.

Experiments:
[1] = test system: RS4;11 (BCL-2 dependent acute lymphoblastic leukemia cell line); assay: RS4;11 Cell Proliferation Assay; assay type: cell-based; details: read-out: Cellular proliferation assay (IC50, nM) RS4
Procedure: Biological Example: RS4;11 Cell Proliferation Assay
(§1) The BCL-2 dependent acute lymphoblastic leukemia (ALL) cell line, RS4;11, was used to study the cellular potency of BCL-2 inhibitors. The cells (ATCC, CRL-1873) were cultured in RPMI-1640 complete medium (RPMI-1640 medium, HEPES (Gibco, 22400-105) supplemented with 10% fetal bovine serum (FBS) (Gibco, 10099-1441), 100 unit/ml penicillin and 100 μg/ml streptomycin (Gibco, 15140122)) and maintained in a humidified chamber at 37° C. containing 5% CO2. Each compound was serially diluted with 1 μM as the maximum concentration. To test the apoptotic effect of the compounds, the cells were seeded at 50,000 in 180 μl per well in 96-well plates and treated with 10-point dilution series of each compound for 48 hrs at 37° C. Cell viability was assessed after the treatment using CellTiter-GLO luminescent assay (Promega) according to the manufacturer's recommendations. Briefly, 30 μl of CellTiter-GLO reagent was added into 200 μl of cell culture. Mixture was agitated on an orbital shaker for 5 min to ensure cell lysis followed by 7 min incubation at room temperature to allow development and stabilization of luminescent signals, which corresponded to the quantity of ATP and thus the quantity of metabolically active cells. Luminescent signals were measured using PHERAstar FS reader (BMG). Mean IC50 values were determined with GraphPad Prism software.

[2] = test system: recombinant human Bcl-2-G101V protein; assay: Bcl-2-G101V TR-FRET Assay; assay type: binding; details: ratio of biochemical IC50 Bcl-2 G101V / Bcl-2 WT
Procedure: (§2) Biological Example: Bcl-2-G101V TR-FRET Assay
(§3) […]. The TR-FRET signals (ex337 nm, em490 nm/520 nm) were read on BMG PHERAstar FSX instrument. The inhibition percentage of Bcl-2-G101V interaction with its ligand in presence of increasing concentrations of compounds was calculated based on the ratio of fluorescence at 490 nm to that at 520 nm. The IC50 for each compound was derived from fitting the data to the four-parameter logistic equation by Graphpad Prism software or Dotmatics.

[3] = target: recombinant human Bcl-2-G101V protein (Homo sapiens (Human), UniProt P10415, G101V); assay: Bcl-2-G101V TR-FRET Assay; assay type: binding; details: Bcl-2 G101V mutant, TR-FRET; read-out: Biochemical assay (IC50, nM) Bcl-2 G101V
Procedure: as §2, §3

[4] = target: Recombinant human Bcl-2 protein (Homo sapiens (Human), UniProt P10415); assay: Bcl-2 TR-FRET Assay; assay type: binding
How it was run: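 0.05 nM recombinant Bcl-2 preincubated 0.5 h at room temperature with 10-point compound dilutions (top final 1, 0.1, 0.02 or 0.01 uM) in pH 7.5 phosphate buffer. FITC-Bak peptide (0.5 nM) and anti-6His Tb cryptate then added for 1 h. TR-FRET read; IC50 from four-parameter logistic fit.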

[5] = test system: BCL-2 G101V knock-in cell line H96 (derive from RS4;11); assay: Bcl 2-G101V Knock-In RS4;11 Cell Proliferation Assay; assay type: cell-based; details: Homo sapiens, RS4;11 Bcl-2 G101V knock-in clone H96, 48 hrs, CellTiter-GLO, read-out: Cellular proliferation assay (IC50, nM) RS4
Procedure: Biological Example: Bcl 2-G101V Knock-In RS4;11 Cell Proliferation Assay
(1) RS4;11 H96 Bcl 2-G101V Knock-In Cell Line Generation
Briefly, RS4;11 BCL2-G101V knock-in cell pool was generated using Crisper/Cas9 gene editing system and the BCL2-G101V knock-in single clone H96 was picked from the knock-in cell pool and validated by WES (whole exome-sequencing) and RNA-seq.
The BCL-2 dependent acute lymphoblastic leukemia (ALL) cell line, RS4;11(ATCC, CRL-1873), was cultured in RPMI-1640 complete medium (RPMI-1640 medium, HEPES (Gibco, 22400-105) supplemented with 10% fetal bovine serum (FBS) (Gibco, 10099-1441), 100 unit/ml penicillin and 100 μg/ml streptomycin (Gibco, 15140122)) and maintained in a humidified chamber at 37° C. containing 5% CO2.
To obtain BCL2-G101V knock-in cell pool, RS4;11 was co-transfected with the Cas9-gRNA which also expressed GFP label, and the Donor gene which contained the BCL2-G101V mutant sequence. After 48 hrs of electroporation, the GFP positive cells were collected through FACSAriaIII cell sorting system. Cell pool was recovered for 3 days and then cultured under 2 nM ABT-199 stress for 4 weeks. […] Then cells were plated in 96 well U-plate with 1 cell/well for 10000 wells for single clone selection. After 3-5 weeks growing, clones were successively screened by PCR sequencing. And three BCL2-G101V knock-in clones: H96, H142 and H233, have been picked out.
Three clones were validated by genome DNA and cDNA(mRNA) PCR sequencing, and BCL-2, BCL-xL and MCL-1 expression using Western Blot. The H96 clone was also validated by WES (whole exome-sequencing) and RNA-seq.
(2) Bcl 2-G101V Knock-In RS4;11 Cell Proliferation Assay
as §1, with “G101V knock-in” for “dependent acute lymphoblastic leukemia (ALL)”, “line H96 (derive from RS4;11) were” for “line, RS4;11, was”, “cells” for “cells (ATCC, CRL-1873)”, “μM or 10 μM” for “μM”, “90” for “180”, “100” for “200”

[6] = target: recombinant human Bcl-2 D103Y protein (Homo sapiens (Human), UniProt P10415, D103Y); assay: Bcl-2-D103Y Biochemical Assay (TR-FRET); assay type: binding; details: for IC50: TR-FRET, FITC labeled Bak peptide; for Ratio of Bcl-2 D103Y/Bcl-2 WT: ratio of IC50
How it was run: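 Recombinant human Bcl-2 D103Y binding to its ligand measured by TR-FRET (ex 337 nm, em 490/520 nm) with increasing compound concentrations. Percent inhibition from the 490/520 nm ratio; IC50 from four-parameter logistic fit.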

[7] = Bcl-2 wild type, TR-FRET, read-out: Biochemical assay (IC50, nM) Bcl-2 WT
[8] = Homo sapiens, RS4-11, RS4;11 cells
[9] = wild type Bcl-2, unit inferred, read-out: Bcl-2 WT

Structure (SMILES) | IC50 ([1]; RS4;11 cells) | Ratio of Bcl-2 G101V/WT [2] | IC50 [3] | IC50 [4, 7] | IC50 [1, 8] | IC50 [5] | IC50 [4, 9] | IC50 [6] | Ratio of Bcl-2 D103Y/Bcl-2 WT [6]
CC(C)c1ccccc1C1CN(C(C)c2ccccc2)CCN1C1CC2(CCN(c3ccc(C(=O)NS(=O)(=O)c4ccc(NC[C@H]5CC[C@](C)(O)CC5)c([N+](=O)[O-])c4)c(Oc4cnc5[nH]ccc5c4)c3)CC2)C1 (single isomer, unassigned) [Example 24a, 2-((1H-pyrrolo[2,3-b]pyridin-5-yl)oxy)-N-((4-((((1r,4r)-4-hydroxy-4-methylcyclohexyl)methyl)amino)-3-nitrophenyl)sulfonyl)-4-(2-(2-(2-isopropylphenyl)-4-(1-phenylethyl)piperazin-1-yl)-7-azaspiro[3.5]nonan-7-yl)benzamide] | 3.4 nM | 18.6 | 6.9 nM | 0.37 nM |  |  |  |  | 
CC(C)c1ccccc1C1CN(CC(C)(C)C)CCN1C1CC2(CCN(c3ccc(C(=O)NS(=O)(=O)c4ccc(NC[C@H]5CC[C@](C)(O)CC5)c([N+](=O)[O-])c4)c(Oc4cnc5[nH]ccc5c4)c3)CC2)C1 (some centres unmarked) [Example 12, 2-((1H-pyrrolo[2,3-b]pyridin-5-yl)oxy)-N-((4-((((1r,4r)-4-hydroxy-4-methylcyclohexyl)methyl)amino)-3-nitrophenyl)sulfonyl)-4-(2-(2-(2-isopropylphenyl)-4-neopentylpiperazin-1-yl)-7-azaspiro[3.5]nonan-7-yl)benzamide] |  |  |  |  | 3 nM | 40.5 nM |  |  | 
COCCN1CCN(C2CC3(CCN(c4ccc(C(=O)NS(=O)(=O)c5ccc(NC[C@H]6CC[C@](C)(O)CC6)c([N+](=O)[O-])c5)c(Oc5cnc6[nH]ccc6c5)c4)CC3)C2)C(c2ccccc2C(C)C)C1 (some centres unmarked) [Example 13, 2-((1H-pyrrolo[2,3-b]pyridin-5-yl)oxy)-N-((4-((((1r,4r)-4-hydroxy-4-methylcyclohexyl)methyl)amino)-3-nitrophenyl)sulfonyl)-4-(2-(2-(2-isopropylphenyl)-4-(2-methoxyethyl)piperazin-1-yl)-7-azaspiro[3.5]nonan-7-yl)benzamide] |  |  |  |  | 0.7 nM | 5.67 nM |  |  | 
CC(C)c1ccccc1C1CN(c2ccccc2)CCN1C1CC2(CCN(c3ccc(C(=O)NS(=O)(=O)c4ccc(NC[C@H]5CC[C@](C)(O)CC5)c([N+](=O)[O-])c4)c(Oc4cnc5[nH]ccc5c4)c3)CC2)C1 (some centres unmarked) [Example 65, 2-((1H-pyrrolo[2,3-b]pyridin-5-yl)oxy)-N-((4-((((1r,4r)-4-hydroxy-4-methylcyclohexyl)methyl)amino)-3-nitrophenyl)sulfonyl)-4-(2-(2-(2-isopropylphenyl)-4-phenylpiperazin-1-yl)-7-azaspiro [3.5]nonan-7-yl)benzamide] |  | 62.8 | 54 nM | 0.86 nM | 5.9 nM |  |  |  | 
COc1cc(CN2CCN(C3CC4(CCN(c5ccc(C(=O)NS(=O)(=O)c6ccc(NC[C@H]7CC[C@](C)(O)CC7)c([N+](=O)[O-])c6)c(Oc6cnc7[nH]ccc7c6)c5)CC4)C3)[C@H](c3ccccc3C(C)C)C2)cc2c1OCC2(C)C [Example 286, 2-((1H-pyrrolo[2,3-b]pyridin-5-yl)oxy)-N-((4-((((1r,4r)-4-hydroxy-4-methylcyclohexyl)methyl)amino)-3-nitrophenyl)sulfonyl)-4-(2-((R)-2-(2-isopropylphenyl)-4-((7-methoxy-3,3-dimethyl-2,3-dihydrobenzofuran-5-yl)methyl)piperazin-1-yl)-7-azaspiro[3.5]nonan-7-yl)benzamide] |  | 4.8 | 0.48 nM | 0.1 nM |  |  | 0.1 nM | 0.19 nM | 1.9
CNc1ccc(CN2CCN(C3CC4(C3)CN(c3ccc(C(=O)NS(=O)(=O)c5ccc(NC[C@H]6CC[C@](C)(O)CC6)c([N+](=O)[O-])c5)c(Oc5cnc6[nH]cc(F)c6c5)c3)C4)[C@H](c3ccccc3C(C)C)C2)cc1OC [Example 358, 2-((3-fluoro-1H-pyrrolo[2,3-b]pyridin-5-yl)oxy)-N-((4-((((1r,4r)-4-hydroxy-4-methylcyclohexyl)methyl)amino)-3-nitrophenyl)sulfonyl)-4-(6-((R)-2-(2-isopropylphenyl)-4-(3-methoxy-4-(methylamino)benzyl)piperazin-1-yl)-2-azaspiro[3.3]heptan-2-yl) benzamide] |  | 2.4 | 0.24 nM | 0.1 nM |  |  | 0.1 nM | 0.11 nM | 1.1
CC(C)c1ccccc1[C@@H]1CN(Cc2ccc(C3CCOC3)cc2)CCN1C1CC2(C1)CN(c1ccc(C(=O)NS(=O)(=O)c3ccc(NCC4CCC(C)(O)CC4)c([N+](=O)[O-])c3)c(Oc3cnc4[nH]cc(F)c4c3)c1)C2 (stereo partly drawn) [Example 371, 2-((3-fluoro-1H-pyrrolo[2,3-b]pyridin-5-yl)oxy)-N-((4-((((1r,4r)-4-hydroxy-4-methylcyclohexyl)methyl)amino)-3-nitrophenyl)sulfonyl)-4-(6-((2R)-2-(2-isopropylphenyl)-4-(4-(tetrahydrofuran-3-yl)benzyl)piperazin-1-yl)-2-azaspiro[3.3]heptan-2-yl)benzamide] |  | 2.7 | 0.32 nM | 0.12 nM |  |  |  | 0.31 nM | 2.6
